Source: patent publication US20110143999A1, “FOWLICIDINS AND METHODS OF ITS USE” (priority 2005, published 2011)
pEC50: −log10 of the molar value. Values after ≈ are worked out from the molar mass of the structure shown. Like-named read-outs stand apart in the source and are kept apart here. Residues, ends and D or L forms follow the SMILES beside them.

Columns and labels:
[1] = tested on: LPS from E. coli O111:B4; experiment: LPS binding assay (chromogenic Limulus amebocyte lysate); conditions: Table V; 50% inhibition of LPS-mediated procoagulant activation
[2] = tested on: E. coli ATCC 25922
[3] = tested on: S. typhimurium ATCC 14028
[4] = tested on: S. aureus ATCC 25923
[5] = tested on: L. monocytogenes ATCC 19115; experiment: Modified broth microdilution assay (1% MHB); conditions: Table V, Example 2, listed as fowlicidin-1-K^7L^12K^14L^16K^18
[6] = tested on: three Gram-negative and four Gram-positive bacteria; conditions: Example 3; 20% TSB, 25 mM NaHCO3, 1 mM NaH2PO4, with or without 100 mM NaCl
[7] = tested on: E. coli O157:H7 ATCC 700728; conditions: 1% MHB
[8] = tested on: S. typhimurium DT104 ATCC 700408
[9] = tested on: K. pneumoniae ATCC 13883
[10] = tested on: S. aureus (MRSA) ATCC BAA-39
[11] = tested on: MDCK cells
[12] = tested on: E. coli ATCC 25922; remark: listed apart in the source
[13] = tested on: S. typhimurium ATCC 14028; remark: listed apart in the source
[14] = tested on: S. enteritidis ATCC 13076
[15] = tested on: K. pneumoniae ATCC 13883; remark: listed apart in the source
[16] = tested on: S. typhimurium DT104 ATCC 700408; remark: listed apart in the source
[17] = tested on: L. monocytogenes ATCC 19115
[18] = tested on: S. aureus ATCC 25923; remark: listed apart in the source
[19] = tested on: S. aureus (MRSA) ATCC 43300
[20] = tested on: S. aureus (MRSA) ATCC BAA-39; remark: listed apart in the source
[21] = tested on: Gram-negative and Gram-positive bacteria; conditions: Example 4, summary of Table VII
[22] = tested on: MDCK cells; experiment: Cytotoxicity assay (alamarBlue)

CC[C@H](C)[C@H](NC(=O)[C@H](C)NC(=O)[C@H](CCCNC(=N)N)NC(=O)[C@H](Cc1ccc(O)cc1)NC(=O)[C@H](CC(C)C)NC(=O)[C@H](CCCCN)NC(=O)[C@H](Cc1ccc(O)cc1)NC(=O)[C@H](CC(C)C)NC(=O)[C@H](C)NC(=O)[C@H](CCCCN)NC(=O)[C@@H](NC(=O)[C@H](CC(C)C)NC(=O)[C@H](CCCNC(=N)N)NC(=O)[C@@H](NC(=O)[C@@H](NC(=O)[C@H](CC(C)C)NC(=O)[C@H](CCCCN)NC(=O)[C@H](Cc1c[nH]c2ccccc12)NC(=O)[C@@H](NC(=O)[C@H](CCCNC(=N)N)NC(=O)[C@H](CCCCN)NC(=O)[C@@H](NC(=O)[C@@H](N)CCCNC(=N)N)C(C)C)C(C)C)C(C)C)[C@@H](C)CC)C(C)C)C(=O)N[C@@H](CCCCN)C(=O)N[C@@H](CCCCN)C(=O)N[C@@H](CCCCN)C(=O)O [Fowl-1-KLKLK] (H-RVKRVWKLVIRLVKALYKLYRAIKKK-OH; N-terminus assumed)
pEC50 [1]: 5.22
pEC50: 4.96
Antibacterial Activity (MIC, μM) E. coli ([2]; Table V, Example 2, 1% MHB, listed as fowlicidin-1-K^7L^12K^14L^16K^18): > 7.6 µM
Antibacterial Activity (MIC, μM) Salmonella [3]: 1.9 µM
Antibacterial Activity (MIC, μM) S. aureus [4]: 1.9 µM
Antibacterial Activity (MIC, μM) Listeria [5]: > 7.6 µM

CC[C@H](C)[C@H](NC(=O)[C@@H](NC(=O)[C@@H](NC(=O)[C@@H](NC(=O)[C@@H](NC(=O)[C@H](CCCCN)NC(=O)[C@@H]1CCCN1)C(C)C)[C@@H](C)O)[C@@H](C)CC)[C@@H](C)O)C(=O)N[C@@H](CCC(N)=O)C(=O)NCC(=O)N[C@@H](CO)C(=O)N[C@@H](C)C(=O)N[C@@H](CCCNC(=N)N)C(=O)N[C@@H](Cc1ccccc1)C(=O)O [Fowl-2(19-31)] (H-PKVTITIQGSARF-OH; N-terminus and C-terminus assumed)
MIC (range over bacteria tested) [6]: > 32 µM

CC[C@H](C)[C@H](NC(=O)[C@H](CCCCN)NC(=O)[C@H](CCCNC(=N)N)NC(=O)[C@H](CC(C)C)NC(=O)[C@H](Cc1ccccc1)NC(=O)[C@H](CCCNC(=N)N)NC(=O)CNC(=O)[C@H](Cc1ccccc1)NC(=O)[C@H](CCCNC(=N)N)NC(=O)CNC(=O)[C@H](CCCNC(=N)N)NC(=O)[C@H](CCC(N)=O)NC(=O)[C@@H](NC(=O)[C@@H](N)CC(C)C)C(C)C)C(=O)N[C@@H](CCCNC(=N)N)C(=O)N[C@@H](CCCNC(=N)N)C(=O)N[C@@H](Cc1ccccc1)C(=O)N[C@@H](CCCNC(=N)N)C(=O)N1CCC[C@H]1C(=O)N[C@@H](CCCCN)C(=O)N[C@H](C(=O)N[C@H](C(=O)N[C@H](C(=O)N[C@H](C(=O)N[C@H](C(=O)N[C@@H](CCC(N)=O)C(=O)NCC(=O)N[C@@H](CO)C(=O)N[C@@H](C)C(=O)N[C@@H](CCCNC(=N)N)C(=O)N[C@@H](Cc1ccccc1)C(=O)O)[C@@H](C)CC)[C@@H](C)O)[C@@H](C)CC)[C@@H](C)O)C(C)C [Fowlicidin-2] (H-LVQRGRFGRFLRKIRRFRPKVTITIQGSARF-OH; N-terminus and C-terminus assumed)
MIC [2]: 2.66 µM (≈ 10 µg/mL)
MIC ([7]; NaCl 0 mM): 0.66 µM (≈ 2.48 µg/mL)
MIC ([7]; NaCl 100 mM): 1.33 µM (≈ 5 µg/mL)
MIC [8]: 0.66 µM (≈ 2.48 µg/mL)
MIC [9]: 0.66 µM (≈ 2.48 µg/mL)
MIC [4]: 0.66 µM (≈ 2.48 µg/mL)
MIC [10]: 0.66 µM (≈ 2.48 µg/mL)
MIC (range over bacteria tested) [6]: 0.5 to 2 µM

CC[C@H](C)[C@H](NC(=O)CNC(=O)[C@H](C)NC(=O)[C@H](C)NC(=O)[C@@H](NC(=O)[C@@H](NC(=O)[C@H](CC(N)=O)NC(=O)[C@@H](NC(=O)[C@H](C)NC(=O)[C@@H](NC(=O)[C@@H]1CCCN1C(=O)[C@@H](NC(=O)[C@H](CC(C)C)NC(=O)[C@@H]1CCCN1C(=O)[C@H](Cc1c[nH]c2ccccc12)NC(=O)[C@H](Cc1ccccc1)NC(=O)[C@H](CCCNC(=N)N)NC(=O)[C@@H](N)CCCCN)C(C)C)C(C)C)[C@@H](C)CC)[C@@H](C)O)C(C)C)C(=O)N[C@@H](CC(N)=O)C(=O)N[C@@H](CC(C)C)C(=O)N[C@@H](Cc1ccc(O)cc1)C(=O)N[C@@H](CCCCN)C(=O)N[C@@H](C)C(=O)N[C@H](C(=O)N[C@@H](CCCNC(=N)N)C(=O)N[C@@H](CCCNC(=N)N)C(=O)N[C@@H](CCCCN)C(=O)O)[C@@H](C)CC [Fowlicidin-3] (H-KRFWPLVPVAINTVAAGINLYKAIRRK-OH; N-terminus and C-terminus assumed)
fold reduction in toxicity in the presence of 10% FBS [11]: 2 fold
MIC [12]: 2 µM (≈ 6.19 µg/mL)
MIC [13]: 2 µM (≈ 6.19 µg/mL)
MIC [14]: 2 µM (≈ 6.19 µg/mL)
MIC [15]: 1 µM (≈ 3.1 µg/mL)
MIC [16]: 2 µM (≈ 6.19 µg/mL)
MIC [17]: 2 µM (≈ 6.19 µg/mL)
MIC [18]: 1 µM (≈ 3.1 µg/mL)
MIC [19]: 1 µM (≈ 3.1 µg/mL)
MIC [20]: 1 µM (≈ 3.1 µg/mL)
MICs (range over bacteria tested) [21]: 1 to 2 µM
cytotoxicity (EC50) fold higher than MICs ([22]; in the presence of serum, against all bacterial strains tested): 10-to 40 fold
pEC50 ([22]; read-out: 50% effective concentration (EC50), MDCK cell killing, Example 4, without serum, FIG. 20A): 4.92
